Assays:
Format in all cases: in vivo, Wistar rats
[1] = system: gastric ulcer induced by aspirin; assay: Gastric ulcer index in rats with stomach damage induced by aspirin (method of Dekanski et al.); conditions: oral, once every day for 5 weeks; aspirin 50 mg/kg BW; salt 0.167 g/kg BW; glibenclamide 10 mg/kg BW; n=8
Experimental: In order to measure an effect on preventing stomach damage, five-week Wistar rats were purchased from Central Lab. Animal Inc., Seoul, Korea. A breeding room was set to be 20° C. of the temperature, 50 to 60% of relative humidity, and 12 hours of lighting cycle, and water and food were set to be freely taken. The test animals were accommodated for 2 weeks using a general feed prepared on the basis of AlN-93G, and then, the weights of the animals were measured to divide them into each of test groups (n=8). Since then, the test groups were a normal group (Con) injected with distilled water only, a control group (NaCl) injected with pure sodium chloride (NaCl, 0.167 g/kg BW) that was a main ingredient of salt only, and a heat-treated salt-treating group injected with heat-treated purple salt (0.167 g/kg BW), in which each of sample solutions was orally injected along with aspirin (50 mg/kg BW) once every day for 5 weeks. In addition, glibenclamide (10 mg/kg BW) solution inhibiting KATP channel dissolved in 0.01 N NaOH including 4% glucose was abdominally injected 1 hour before orally injecting aspirin (50 mg/kg BW) and heat-treated salt (0.167 g/kg BW), and performed once every day for 5 weeks. […]
An effect of the heat-treated purple salt obtained in Example 2 on suppressing gastric ulcer was measured.

[2] = system: stomach damage induced by aspirin; assay: Effect on preventing stomach damage in rats with stomach damage induced by aspirin (microscopic observation of opened stomach); conditions: oral, once every day for 5 weeks; aspirin 50 mg/kg BW; salt 0.167 g/kg BW; glibenclamide 10 mg/kg BW abdominally 1 hour before
Experimental: In order to measure an effect on preventing stomach damage, five-week Wistar rats were purchased from Central Lab. Animal Inc., Seoul, Korea. A breeding room was set to be 20° C. of the temperature, 50 to 60% of relative humidity, and 12 hours of lighting cycle, and water and food were set to be freely taken. The test animals were accommodated for 2 weeks using a general feed prepared on the basis of AlN-93G, and then, the weights of the animals were measured to divide them into each of test groups (n=8). Since then, the test groups were a normal group (Con) injected with distilled water only, a control group (NaCl) injected with pure sodium chloride (NaCl, 0.167 g/kg BW) that was a main ingredient of salt only, and a heat-treated salt-treating group injected with heat-treated purple salt (0.167 g/kg BW), in which each of sample solutions was orally injected along with aspirin (50 mg/kg BW) once every day for 5 weeks. In addition, glibenclamide (10 mg/kg BW) solution inhibiting KATP channel dissolved in 0.01 N NaOH including 4% glucose was abdominally injected 1 hour before orally injecting aspirin (50 mg/kg BW) and heat-treated salt (0.167 g/kg BW), and performed once every day for 5 weeks. The respective treating groups were fasted for 24 hours before sacrificing; sacrificed; and then, the stomach was removed.

[3] = system: damage of gastric mucous membrane induced by aspirin; assay: Damage of gastric mucous membrane measured as stomach thickness in rats with stomach damage induced by aspirin; conditions: oral, once every day for 5 weeks; aspirin 50 mg/kg BW; salt 0.167 g/kg BW; glibenclamide 10 mg/kg BW; ocular micrometer
Experimental: In order to measure an effect on preventing stomach damage, five-week Wistar rats were purchased from Central Lab. Animal Inc., Seoul, Korea. A breeding room was set to be 20° C. of the temperature, 50 to 60% of relative humidity, and 12 hours of lighting cycle, and water and food were set to be freely taken. The test animals were accommodated for 2 weeks using a general feed prepared on the basis of AlN-93G, and then, the weights of the animals were measured to divide them into each of test groups (n=8). Since then, the test groups were a normal group (Con) injected with distilled water only, a control group (NaCl) injected with pure sodium chloride (NaCl, 0.167 g/kg BW) that was a main ingredient of salt only, and a heat-treated salt-treating group injected with heat-treated purple salt (0.167 g/kg BW), in which each of sample solutions was orally injected along with aspirin (50 mg/kg BW) once every day for 5 weeks. […] A degree of the damage of gastric mucous membrane of the heat-treated purple salt obtained in Example 2 was measured by measuring a stomach thickness. […] Since then, the stomach thicknesses were measured using an ocular micrometer.

Structure (SMILES): CC(=O)Oc1ccccc1C(=O)O [aspirin]
- gastric ulcer index (FIG. 3) [1]: 37.3±10.4
- stomach damage (bleeding, inflammation, mucosa) observed with optical microscope (FIG. 2) [2]: severe damage along with gastric hemorrhage
- stomach thickness (FIG. 4) [3]: very thin as compared with the normal group
